From US10463753B2, “Radiolabeled monoacylglycerol lipase occupancy probe” (LUNDBECK LA JOLLA RESEARCH CENTER, INC., priority 2016, dated 2019)

Legend:
[1] = Whole-body biodistribution and radiation dosimetry by PET imaging; format: in vivo, rhesus monkey
Experimental: The average PET image over the total acquisition duration (˜240 min) of a female rhesus is shown in FIG. 6 (abbreviations: CT=computerized tomography; gb=gallbladder; HU=Hounsfield units; PET=positron emission tomography; SUV=standardized uptake value; ub=urinary bladder; VOI=volume of interest) at three different levels through the body. […] The volumes of interest (VOIs) drawn over the organs identified as sources for the radiation dosimetry calculation can be seen on both average PET and its associated computed tomography (CT) image. […] Selected organs are labeled in the figure. The non-decay corrected (used for the dosimetry calculation) and decay corrected time activity curves of the 11 source organs are shown in FIG. 8 for both the female and male rhesus monkey. The curve values are expressed as percent of injected activity. The total absorbed doses in various target organs generated by OLINDA|EXM 1.1 software are presented in Table 4 for both adult male and adult female models in units of millisievert per megabecquerel (mSv/MBq) and roentgen equivalent man per millicurie (rem/mCi). Kidneys received the highest radiation dose in both the male and female rhesus. The effective dose equivalent (with ICRP-26 tissue weighting factors) and effective dose (with ICRP-60 tissue weighting factors) calculated for the whole body are also listed in Table 4.

[2] = Free fraction of parent compound in plasma by ultrafiltration; format: in vitro ADME; details: human plasma, n=10; read-out: Free fraction of parent compound in plasma (not protein bound)
Experimental: (§1) Blood samples were analyzed by HPLC to determine the fraction of intact parent compound at each time point. […] Free fraction of parent compound in plasma (not protein bound) was also measured by ultrafiltration and estimated to be 0.36±0.04% (n=10).

[3] = Phase 0 whole-body biodistribution and radiation dosimetry by PET; format: in vivo, human
Experimental: (§2) An additional cohort of four healthy volunteers (two male, two female) was recruited for a whole body biodistribution cohort in which they underwent a single Compound 8F PET scan.
Elimination via the urinary route was very low.
The following organs were identified as source organs: brain, heart, liver, gallbladder, intestines, kidneys, and urinary bladder. […] The average whole body effective dose (ED) was determined to be 2.19E-02±2.83E-04 mSv/MBq (8.10E-02±1.05E-03 rem/mCi) for adult female and 1.85E-02±7.07E-04 mSv/MBq (6.85E-02±2.62E-03 rem/mCi) for adult male, where the critical organ was determined to be the liver. Stated differently, average whole body ED for females=21.9 μSv/MBq, and for males=18.5 μSv/MBq (average for male and female=20.2 μSv/MBq).

[4] = In vitro plasma protein binding by ultrafiltration; format: in vitro ADME; details: rhesus monkey, read-out: Plasma free fraction (not protein bound)
[5] = Phase 0 study: parent fraction in blood/plasma by HPLC; format: in vivo; details: human blood
Experimental: as §2, §1

[6] = arterial plasma
[7] = whole-body biodistribution cohort

## O=C(OC(C(F)(F)F)C(F)(F)F)N1CCN(Cc2ccc(Cl)cc2N2CCN(CC[18F])CC2)CC1 [Compound 8F, [^18F]1,1,1,3,3,3-hexafluoropropan-2-yl 4-(4-chloro-2-(4-(2-fluoroethyl)piperazin-1-yl)benzyl)piperazine-1-carboxylate]
[1]; both male and female rhesus
  Organ receiving the highest radiation dose: Kidneys
[1]; i.v. bolus, whole-body PET
  Organs with the highest uptake: liver, heart wall, lungs, kidney and brain
[2]
  fraction unbound: 0.0036 ± 0.0004
[3]; average for male and female
  Average whole body ED: 20.2 μSv/MBq
[3]; females
  Average whole body ED: 21.9 μSv/MBq
[3]; males
  Average whole body ED: 18.5 μSv/MBq
[3]; [7]
  Elimination via the urinary route: very low
  Maximum injected dose (ID) in the intestine: 6-7 % ID
  Maximum injected dose (ID) in the liver: 26-28 % injected dose (ID)
  Organ with highest radiation absorbed dose (critical organ): liver
  Route of elimination of the radiotracer: primarily via hepatobiliary route
[4]; first study
  fraction unbound: 0.047 ± 0.006
[4]; second study
  fraction unbound: 0.008 ± 0.0004
[5]
  Stability in blood ex vivo: stable
[6]; by ~10 min post-dose
  Plasma level: ≤ 0.01 % of the injected dose
[6]; single i.v. 2.25-4.99 mCi
  Peak plasma concentration: ~0.04 % of the injected dose
[6]; single i.v. dose
  Time of peak plasma concentration post-dose: ~5 min
